The values that follow come from PubChem BioAssay AID624369 (Broad Institute, 2012).

Records with an inconclusive call do not appear. Active and inactive are the calls of the source.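 How the source made its calls: active means fitted curve crosses a set inhibition level at a dose up to twice the top tested dose; inconclusive means flat curve with moderate inhibition, or an unreliable curve fit; inactive means the rest, including signal rising instead of falling.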

Assay [1] has as its system HEK293 LMP1 TES2 NF-kB luciferase reporter, 16 h. Briefly: inhibitors of TNFa-stimulated NF-kB luciferase reporter, dose response, selectivity assay for EBV LMP1 NF-kB inhibitor project, HEK293 LMP1 reporter cells, dry powder, set 2 (AID 624369). In general terms: A reporter such as luciferase makes a cellular process visible.
Assay in assay [2]: as above
To be noted: HEK293 LMP1 TES2 NF-kB luciferase reporter, 16 h.

For `O=C(C[C@H]1C[C@H]2c3cc(NC(=O)c4ccc5c(c4)OCO5)ccc3O[C@H]2[C@H](CO)O1)NCc1ccc(Oc2ccccc2)cc1`, the AC35 in assay [1] was 30 µM.

For `CN(C)c1ccc2c(c1)[C@@H]1C[C@@H](CC(=O)NCc3ccc(Oc4ccccc4)cc3)O[C@H](CO)[C@@H]1O2`, the AC35 in assay [1] is 10.3 µM.

In the case of `Cc1ccc(S(=O)(=O)N(C)C[C@H]2Oc3cc(C#Cc4ccncc4)ccc3S(=O)(=O)N([C@@H](C)CO)C[C@@H]2C)cc1`, in assay [1], the AC35 was 10.2 µM.

Regarding `COc1ccccc1C#Cc1ccc2c(c1)O[C@H](CN(C)Cc1cccnc1)[C@H](C)CN([C@H](C)CO)S2(=O)=O`, the AC35 in assay [1] is 20.7 µM.

Regarding `C[C@H]1CN([C@@H](C)CO)S(=O)(=O)c2ccc(C#Cc3ccncc3)cc2O[C@H]1CN(C)C(=O)Nc1ccc2c(c1)OCO2`, the AC35 in assay [1] is 15.3 µM.

As to `O=C(C[C@H]1C[C@H]2c3cc(NS(=O)(=O)c4ccc(F)cc4)ccc3O[C@H]2[C@H](CO)O1)NCc1ccc(Oc2ccccc2)cc1`, the AC35 in assay [1] is 9.13 µM.

Take `COc1ccccc1C#Cc1ccc([C@H]2[C@H](C#N)N(C(=O)C3CC3)[C@H]2CO)cc1`: in assay [1], the AC35 is 27 µM.

Regarding `CC(C)(C)[S@](=O)N1Cc2cc(C(=O)NCC(F)(F)F)nc(-c3cccc(-c4cccc(F)c4)c3)c2[C@@H]1CCO`, in assay [1], the AC35 was 8.65 µM.

In the case of `COc1ccc(CNC(=O)c2cc3c(c(-c4cccc(-c5ccc(C#N)cc5)c4)n2)[C@@H](CCO)N([S@](=O)C(C)(C)C)C3)cc1`, in assay [1], the AC35 is 19.5 µM.

Consider `COc1cccc(-c2cccc(-c3nc(C(=O)NCC(F)(F)F)cc4c3[C@H](CCO)N([S@@](=O)C(C)(C)C)C4)c2)c1`, for which, in assay [1], the AC35 is 5.24 µM.

`Cc1ccc(S(=O)(=O)N(C)C[C@H]2Oc3cc(C#Cc4ccncc4)ccc3S(=O)(=O)N([C@@H](C)CO)C[C@H]2C)cc1`: the AC35 in assay [1] was 16.4 µM.

As to `Cc1cc(C(=O)Nc2ccc3c(c2)C(=O)N(C)[C@@H]2CC[C@@H](CC(=O)NCc4ccc(-c5ccccc5)cc4)O[C@H]2CO3)no1`, the AC35 in assay [1] is 12.4 µM.

Take `CC(C)(C)[S@@](=O)N1Cc2cc(C(=O)NCc3ccccc3F)nc(-c3cccc(-c4ccncc4)c3)c2[C@H]1CCO`: the AC35 in assay [1] was 9.63 µM.

As for `N#C[C@H]1[C@H](c2ccc(C#Cc3ccccc3F)cc2)[C@H](CO)N1C(=O)c1cccnc1`, the AC35 in assay [1] is 31.3 µM.

Turning to `CN1C(=O)c2cc(NC(=O)c3ccc(C(F)(F)F)cc3)ccc2OC[C@@H]2O[C@@H](CC(=O)NC3Cc4ccccc4C3)CC[C@H]21`, the AC35 in assay [1] was 25.7 µM.

Consider `O=C(C[C@H]1C[C@@H]2c3cc(NS(=O)(=O)c4ccc(F)cc4)ccc3O[C@@H]2[C@@H](CO)O1)NCc1ccc(Oc2ccccc2)cc1`, for which, in assay [1], the AC35 was 16.7 µM.

Regarding `COc1ccccc1CNC(=O)C[C@H]1C[C@@H]2c3cc(NC(=O)CN(C)C)ccc3O[C@@H]2[C@@H](CO)O1`, the activity change, negative = inhibition in assay [2] (at 35 µM (top of the series)) is -0.186% (inactive).

In the case of `O=C(Cc1ccccn1)NCC[C@H]1CC[C@H](NC(=O)Nc2ccc(Cl)cc2)[C@@H](CO)O1`, in assay [2] (at 35 µM (top of the series)), the activity change, negative = inhibition is -0.241% (inactive).

For the compound `C[C@@H](NC(=O)C[C@@H]1C=C[C@@H](NC(=O)Cc2ccccn2)[C@H](CO)O1)c1ccccc1`, in assay [2] (at 35 µM (top of the series)), the activity change, negative = inhibition is -0.205% (inactive).

`C[C@H]1CN([C@@H](C)CO)C(=O)Cc2cc(NC(=O)Cc3ccccc3)ccc2O[C@@H]1CN(C)Cc1ccc(C(F)(F)F)cc1`: the activity change, negative = inhibition in assay [2] (at 35 µM (top of the series)) was 13.6% (inactive).

Consider `COc1ccc(NC(=O)N(C)C[C@@H]2Oc3cc(C#CCC(C)C)ccc3S(=O)(=O)N([C@@H](C)CO)C[C@@H]2C)cc1`, for which the activity change, negative = inhibition in assay [2] (at 35 µM (top of the series)) was 14.6% (inactive).

Turning to `C[C@H](NC(=O)C[C@H]1C=C[C@H](NC(=O)Cc2ccccn2)[C@H](CO)O1)c1ccccc1`, the activity change, negative = inhibition in assay [2] (at 35 µM (top of the series)) is 3.06% (inactive).

For `C[C@H](NC(=O)C[C@@H]1C=C[C@H](NC(=O)Cc2ccccn2)[C@H](CO)O1)c1ccccc1`, in assay [2] (at 30 µM (top of the series)), the activity change, negative = inhibition is -0.606% (inactive).

For `CS(=O)(=O)Nc1ccc2c(c1)[C@@H]1C[C@H](CC(=O)NCC3CC3)O[C@H](CO)[C@@H]1O2`, in assay [2] (at 35 µM (top of the series)), the activity change, negative = inhibition is 6.19% (inactive).
